According to article PMC4965013, “Open Source Drug Discovery with the Malaria Box Compound Collection for Neglected Diseases and Beyond” (PLoS Pathogens, 2016):
pEC50: −log10 of the molar value. Read-outs that look alike come from different tables or passages of the source.

What was measured:
[1] = tested on: P. falciparum Dd2; test: P. falciparum Dd2 asexual blood stages Scynexis; type: cell-based; details: Plasmodium falciparum
[2] = tested on: HIV-1 JR-FL or HIV-1 NL4-3 pseudoviruses; test: HIV-1 pseudovirus infection luciferase; type: cell-based
Description: Columns FK-GB, Moore group (data presented first in this paper). HIV and HIV-producing cell lines, toxicity and viral suppression. […] MMV compounds were incubated with HIV-1 JR-FL or HIV-1 NL4-3 pseudoviruses and U87-CD4-CCR5 or U87-CD4-CXCR4 cells (obtained through the NIH AIDS Reagent Program, Division of AIDS, NIAID, NIH: U87 CD4+CCR5+ Cells from Dr. HongKui Deng and Dr. Dan R. Littman) respectively for 3 days. Cells were assayed for infection by luciferase production (Bright-Glo Luciferase Substrate, Promega) and cell viability by MTT assay. […] MMV compounds were next incubated with HIV-1 JR-FL or HIV-1 NL4-3 viruses and U87-CD4-CCR5 or U87-CD4-CXCR4 cells respectively for 7 days. Cell supernatants were assayed for viral production by p24 ELISA [153] and cell viability by MTT assay. […] DMSO (5%) was completely toxic to all cells (based on visual inspection) and served as the positive control for MTT assays.

[3] = tested on: MRC5SV2 human fibroblasts; details: read-out: MRC-5-Human-Fibroblasts EC50 (32000 >32µM); ref [84]; cited from earlier work
[4] = tested on: U87-CD4-CCR5 or U87-CD4-CXCR4 cells; test: U87 cell viability MTT; type: cell-based; details: for U87 % cell death rep3 (X4 P24 Washout expt): 5uM; for U87 % Cell Death rep3 (R5 P24 Washout expt) / U87 % cell death rep3 (R5 P24 NO Washout expt) / U87 % cell death rep3 (X4 P24 NO Washout expt) / U87 Luc % cell death rep1 / U87 Luc % cell death rep2: 5µM
[5] = tested on: P. falciparum Stage V male and female gametocytes; parameters: method as in ref [74] (a number printed in a supplementary file, which may have a reference list of its own: not looked up in the article's list); details: 1µM; ref [74]; cited from earlier work
[6] = tested on: Entamoeba histolytica Rahman; parameters: method as in ref [87] (a number printed in a supplementary file, which may have a reference list of its own: not looked up in the article's list); details: read-out: Entamoeba histolytica Rahman EC50 (30 means >30); ref [87]; cited from earlier work
[7] = tested on: P. falciparum NF54Pfs16 gametocytes stage IV-V; details: 5µM; ref [62]; cited from earlier work
[8] = tested on: P. falciparum 3D7, HB3, Dd2, W2, K1, FCR3; test: Asexual EC50 image assay, six strains, Ayong; type: cell-based; details: Plasmodium falciparum
[9] = tested on: T. cruzi Tulahuen; details: ref [84]; read-out: Trypanosoma cruzi Tulahuen intracellular amastigotes in MRC5 cell line EC50; cited from earlier work
[10] = tested on: P. falciparum HB3; test: Stage-specificity / mitochondrial integrity image assay Ayong; type: cell-based; details: 10µM
[11] = tested on: HepG2-A16-CD81EGFP cells; details: 50uM; ref [58, 65]; cited from earlier work
[12] = tested on: wild type yeast cells; test: WT yeast (PMT assay control); details: Saccharomyces cerevisiae
[13] = tested on: B. bigemina (Argentine strain); test: B. bigemina fluorescence-based growth assay; type: cell-based; details: Babesia bigemina
[14] = Plasma protein binding human; type: in vitro ADME
Description: Columns GD-GJ: Wuxi Inc. data for MMV (data presented first in this paper) PK/DMPK Parameters: Fasted animals (Male CD-1 mouse, 7-9 weeks age, 30±10 g, n=3) obtained from an approved vendor (SLAC Laboratory Animal Co. Ltd., Shanghai, China or Sino-British SIPPR/BK Laboratory Animal Co. Ltd Shanghai, China) were administered with a single oral dose (140 μmol/kg) using DMSO: 1% HPMC (5:95) as a vehicle. Blood sampling was performed via the submandibular or saphenous vein (t=0.083, 0.25, 1, 2, 4, 6 and 9 h) and transferred into microcentrifuge tubes containing Sodium Heparin (1,000 IU/ml) as anti-coagulant placed on wet ice until processed for plasma by centrifugation at approximately 4°C, 3000×g for 15 min. Plasma samples were stored in polypropylene tubes, quick frozen over dry ice and kept at -70±10°C until LC/MS/MS analysis. LC/MS/MS methods for the quantitative determination compounds plasma levels were developed with an internal standard. […] (Phoenix WinNonlin, version 6.2.1, Pharsight, Mountain View, CA) and expressed as Cmax & AUC0-last. […] AUC0-last is the area under the curve expressed as >12 h*μM (Yes or No). Plasma protein binding assay (PPB) (CD-1 mouse and human) expressed as <95% bound, >95% bound, or >99% bound. Kinetic Solubility at pH 7.4 was determined by liquid chromatography/chemiluminescence nitrogen detection (LC/CLND) and was scored as greater than 20µM (Yes or No). hERG inhibition was measured at 11µM by the QPatch- HT system and is expressed as “Yes” if greater than 45% inhibited at 11µM and “No” if less than or equal to 45% inhibited at 11µM. As part of the Drug-Drug Interaction studies (DDI issues), 5 human and 1 mouse CYP isoforms (1A2, 2C9, 2C19, 2D6, 3A4-M, 3A4-T) were tested for inhibition assay at 10 µM. […] Otherwise DDI issues were scored as “No”. Positive and negative controls were run for each assay (Table 1).

[15] = tested on: P. berghei ookinetes; parameters: method as in ref [74] (a number printed in a supplementary file, which may have a reference list of its own: not looked up in the article's list); details: 1µM; ref [74]; cited from earlier work
[16] = Human immunodeficiency virus 1, NL43, read-out: HIV JRFL % inhibition rep1 in U87 Luc
[17] = Human immunodeficiency virus 1, NL43, read-out: HIV JRFL % inhibition rep2 in U87 Luc
[18] = Human immunodeficiency virus 1, NL43, read-out: HIV NL4-3 % inhibition rep1 in U87 Luc
[19] = read-out: P. falciparum 3D7 asexual blood stage EC50 (Image) Ayong
[20] = read-out: P. falciparum Dd2 asexual blood stage EC50 (Image) Ayong
[21] = read-out: P. falciparum FCR3 asexual blood stage EC50 (Image) Ayong
[22] = read-out: P. falciparum HB3 asexual blood stage EC50 (Image) Ayong
[23] = read-out: P. falciparum K1 asexual blood stage EC50 (Image) Ayong
[24] = read-out: P. falciparum W2 asexual blood stage EC50 (Image) Ayong
[25] = read-out: % Inhibition in WT yeast (PMT assay control), no added choline
[26] = read-out: % Inhibition in WT yeast (PMT assay control), with added choline

CCN1CCN(c2cc(C)c3cc(NC(=O)c4ccc(OC)c(OC)c4)ccc3n2)CC1 [MMV019074]
inhibition at 10 µM [1]: 80%
inhibition at 5 µM [2, 16]: 11%
inhibition at 5 µM [2, 17]: -62%
inhibition at 5 µM [2, 18]: 13%
pEC50 [3]: 5.26
U87 % cell death rep3 (X4 P24 Washout expt) [4]: -32%
U87 % Cell Death rep3 (R5 P24 Washout expt) [4]: 7.48%
U87 % cell death rep3 (R5 P24 NO Washout expt) [4]: 17%
U87 % cell death rep3 (X4 P24 NO Washout expt) [4]: 3.26%
U87 Luc % cell death rep1 [4]: 0.063%
U87 Luc % cell death rep2 [4]: 10%
Male gametocyte Stage V % inhibition of gamete formation [5]: -3.72%
female gametocyte Stage V % inhibition of gamete formation [5]: -9%
pEC50 [6]: < 4.52
gametocyte late stage (IV-V) luciferase % inhibition [7]: -9%
pEC50 [8, 19]: 6.04
pEC50 [8, 20]: 5.90
pEC50 [8, 21]: 5.58
pEC50 [8, 22]: 5.82
pEC50 [8, 23]: 5.88
pEC50 [8, 24]: 5.53
pEC50 [9]: 5.18
P. falciparum HB3 early ring (ER) stage activity [10]: ✖
P. falciparum HB3 late ring (LR) stage activity [10]: ✖
HepG2 toxicity rep 1 [11]: 1.64%
HepG2 toxicity rep 2 [11]: -0.0766%
inhibition at 100 µM [12, 25]: 0%
inhibition at 100 µM [12, 26]: 0%
pEC50 [13]: 5.10
fraction unbound [14]: > 0.05
P. berghei ookinete assay % inhibition [15]: -2.9%

CCOC(=O)c1cnc2ccc(OC)cc2c1NCc1ccccc1 [MMV665813]
inhibition at 10 µM [1]: 55%
inhibition at 5 µM [2, 16]: -33%
inhibition at 5 µM [2, 17]: -10%
inhibition at 5 µM [2, 18]: -135%
pEC50 [3]: < 4.49
U87 % cell death rep3 (X4 P24 Washout expt) [4]: 12%
U87 % Cell Death rep3 (R5 P24 Washout expt) [4]: -10%
U87 % cell death rep3 (R5 P24 NO Washout expt) [4]: -9%
U87 % cell death rep3 (X4 P24 NO Washout expt) [4]: 46%
U87 Luc % cell death rep1 [4]: -52%
U87 Luc % cell death rep2 [4]: 36%
Male gametocyte Stage V % inhibition of gamete formation [5]: -13%
female gametocyte Stage V % inhibition of gamete formation [5]: -41%
pEC50 [6]: < 4.52
gametocyte late stage (IV-V) luciferase % inhibition [7]: 5.69%
pEC50 [8, 20]: 5.48
pEC50 [9]: 4.89
HepG2 toxicity rep 1 [11]: -1.52%
inhibition at 100 µM [12, 25]: 0%
inhibition at 100 µM [12, 26]: 0%
pEC50 [13]: 6.00
fraction unbound [14]: < 0.01
P. berghei ookinete assay % inhibition [15]: -6.8%

CCN(CC)c1cc(C)c2cc(NC(=O)c3cccc(OC)c3)ccc2n1 [MMV000498]
inhibition at 10 µM [1]: 8%
inhibition at 5 µM [2, 16]: -9%
inhibition at 5 µM [2, 17]: 52%
inhibition at 5 µM [2, 18]: 15%
pEC50 [3]: 4.81
U87 % cell death rep3 (X4 P24 Washout expt) [4]: -4%
U87 % Cell Death rep3 (R5 P24 Washout expt) [4]: 1.63%
U87 % cell death rep3 (R5 P24 NO Washout expt) [4]: 33%
U87 % cell death rep3 (X4 P24 NO Washout expt) [4]: 13%
U87 Luc % cell death rep1 [4]: 21%
U87 Luc % cell death rep2 [4]: 64%
Male gametocyte Stage V % inhibition of gamete formation [5]: -1.33%
female gametocyte Stage V % inhibition of gamete formation [5]: -22%
pEC50 [6]: < 4.52
gametocyte late stage (IV-V) luciferase % inhibition [7]: -3.24%
pEC50 [8, 19]: 5.74
pEC50 [8, 20]: 5.61
pEC50 [8, 21]: 5.34
pEC50 [8, 22]: 5.55
pEC50 [8, 23]: 5.45
pEC50 [8, 24]: 5.56
pEC50 [9]: 4.86
P. falciparum HB3 early ring (ER) stage activity [10]: ✖
P. falciparum HB3 late ring (LR) stage activity [10]: ✖
P. falciparum HB3 trophozoite (T) stage activity [10]: ✖
HepG2 toxicity rep 1 [11]: 0.453%
HepG2 toxicity rep 2 [11]: -1.24%
inhibition at 100 µM [12, 25]: 0%
inhibition at 100 µM [12, 26]: 0%
pEC50 [13]: 5.05
fraction unbound [14]: < 0.01
P. berghei ookinete assay % inhibition [15]: -7.5%

COc1ccc(C(=O)Nc2ccc3nc(N4CCCCC4)cc(C)c3c2)cc1OC [MMV019758]
inhibition at 10 µM [1]: 36%
inhibition at 5 µM [2, 16]: 4.56%
inhibition at 5 µM [2, 17]: -50%
inhibition at 5 µM [2, 18]: 7%
pEC50 [3]: 4.79
U87 % cell death rep3 (X4 P24 Washout expt) [4]: -25%
U87 % Cell Death rep3 (R5 P24 Washout expt) [4]: 3.19%
U87 % cell death rep3 (R5 P24 NO Washout expt) [4]: 39%
U87 % cell death rep3 (X4 P24 NO Washout expt) [4]: -2.11%
U87 Luc % cell death rep1 [4]: -1.12%
U87 Luc % cell death rep2 [4]: 4.5%
Male gametocyte Stage V % inhibition of gamete formation [5]: 10%
female gametocyte Stage V % inhibition of gamete formation [5]: -48%
pEC50 [6]: < 4.52
pEC50 [8, 19]: 5.80
pEC50 [8, 20]: 5.48
pEC50 [8, 22]: 5.46
pEC50 [8, 24]: 5.35
pEC50 [9]: 4.84
P. falciparum HB3 late ring (LR) stage activity [10]: ✖
HepG2 toxicity rep 1 [11]: -1%
HepG2 toxicity rep 2 [11]: -1.21%
inhibition at 100 µM [12, 25]: 0%
inhibition at 100 µM [12, 26]: 0%
pEC50 [13]: 6.34
fraction unbound [14]: < 0.01
P. berghei ookinete assay % inhibition [15]: -18.9%

COc1cc2cc(C(=O)Nc3ccccc3)c(N)nc2cc1OC [MMV006767]
inhibition at 10 µM [1]: 40%
inhibition at 5 µM [2, 16]: 93%
inhibition at 5 µM [2, 17]: 64%
inhibition at 5 µM [2, 18]: 96%
pEC50 [3]: < 4.49
U87 % cell death rep3 (X4 P24 Washout expt) [4]: 51%
U87 % Cell Death rep3 (R5 P24 Washout expt) [4]: -0.103%
U87 % cell death rep3 (R5 P24 NO Washout expt) [4]: 95%
U87 % cell death rep3 (X4 P24 NO Washout expt) [4]: 106%
U87 Luc % cell death rep1 [4]: 75%
U87 Luc % cell death rep2 [4]: 43%
Male gametocyte Stage V % inhibition of gamete formation [5]: 22%
female gametocyte Stage V % inhibition of gamete formation [5]: -10%
pEC50 [6]: < 4.52
gametocyte late stage (IV-V) luciferase % inhibition [7]: 2%
pEC50 [8, 19]: 6.23
pEC50 [8, 20]: 6.45
pEC50 [8, 21]: 6.03
pEC50 [8, 22]: 6.09
pEC50 [8, 23]: 5.83
pEC50 [8, 24]: 6.10
P. falciparum HB3 late ring (LR) stage activity [10]: T,S
P. falciparum HB3 trophozoite (T) stage activity [10]: ✖
HepG2 toxicity rep 1 [11]: 82%
HepG2 toxicity rep 2 [11]: 90%
inhibition at 100 µM [12, 25]: 0%
inhibition at 100 µM [12, 26]: 0%
pEC50 [13]: 4.68
fraction unbound [14]: > 0.05
P. berghei ookinete assay % inhibition [15]: 8.6%
